{"source": "patent US20070173539A1", "about": "“Use of malonomicin and analogs in fungicidal applications” (priority 2006, published 2007)", "type_in_all_cases": "in vivo", "key": {"[1]": {"test_system": "Leptosphaeria nodorum (LEPTNO)", "experiment": "Glume Blotch of Wheat one day protectant (1DP)", "conditions": "wheat (Yuma), sprayed to runoff, rate 200 ppm", "protocol": "Final treatment volumes were obtained by adding 0.1 percent aqueous Ethomeen T25 or 0.1 percent aqueous Spraymate X77+0.1 percent wt./vol. ammonium sulfate^+. Glume Blotch of Wheat (Leptosphaeria nodorum-[…]) Wheat (cultivar Yuma) was grown in plastic pots (6.2 cm×8.75 cm) containing 50 percent mineral soil, 50 percent Metro-Mix 360 (W.R Grace and Co.). until the seedlings were 10-20 cm tall. These plants were then sprayed to runoff with the test compound at a rate of 200 ppm. After 24 hours the test plants were inoculated by spraying with an aqueous spore suspension of Leptosphaeria nodorum ([…]). The plants were then transferred to a dew chamber for 24 hours, then to the greenhouse until disease developed on the untreated control plants."}, "[2]": {"test_system": "Phytophthora infestans PHYTIN", "conditions": "curative 1 day, low volume 300 L/ha, tomato"}, "[3]": {"test_system": "Puccinia recondita f. sp. tritici PUCCRT", "experiment": "Curative low volume test, wheat brown rust", "conditions": "low volume 300 L/ha; for PUCCRT 1DC percent disease control: curative 1 day; for PUCCRT 3DC percent disease control: curative 3 days"}, "[4]": {"test_system": "Septoria tritici (SEPTTR)", "experiment": "Speckled Leaf Blotch of Wheat one day protectant (1DP)", "conditions": "wheat (Monon), sprayed to runoff, rate 200 ppm", "protocol": "Final treatment volumes were obtained by adding 0.1 percent aqueous Ethomeen T25 or 0.1 percent aqueous Spraymate X77+0.1 percent wt./vol. ammonium sulfate^+. Speckled Leaf Blotch of Wheat (Septoria tritici-[…]) Wheat (cultivar Monon) was grown in plastic pots (6.2 cm×8.75 cm) containing 50 percent mineral soil, 50 percent Metro-Mix 360 (W.R Grace and Co.) until the seedlings were 10-20 cm tall. These plants were then sprayed to runoff with the test compound at a rate of 200 ppm. After 24 hours the test plants were inoculated by spraying with an aqueous spore suspension of Septoria tritici ([…]). The plants were then transferred to a dew chamber for 24 hours, then to the greenhouse until disease developed on the untreated control plants."}, "Septoria tritici SEPTTR": {"test_system": "Septoria tritici SEPTTR", "experiment": "Curative low volume test, wheat leaf blotch", "conditions": "curative 3 days, low volume 300 L/ha", "protocol": "Tomatoes and grapes were grown in a soil-less peat-based potting mixture (Metro-Mix 360) while wheat was propagated in a 50/50 mix of mineral soil and Metro-Mix 360.\nThe malonomicin sample (Compound I) used in the low volume foliar spray was prepared by dissolving the material in deionized water with the desired adjuvant concentration. (0.05 percent Spraymate X-77+0.05 percent PVA+0.1 percent ammonium sulfate+0.1 percent EDTA)\nFor low volume applications, compound was applied to plants at the spray volume of 300 L/ha using a track sprayer with an SS8003E spray nozzle and a spray pressure of 255 kPa with a boom height of 40 cm from test plants. For a control, the same mixture is sprayed without active ingredient (solvent control).\nCurative tests (DC) were inoculated the designated day(s) prior to treatment application. Disease severity was assessed as the percentage of the total surface area of the sprayed leaves covered by disease. Percent disease control relative to the solvent control was then calculated. Phytotoxicity symptoms and severity, if present, were also recorded. Four replicate plants per treatment for low volume applications were used.\nWheat plants were inoculated using approximately 1×10^7 spores/mL. Distilled water was poured into inoculum plates and the spores were dislodged using a spatula. The spores and water were filtered through 2 layers of cheesecloth, and three drops of Tween 20 per 100 mL of solution were added as a wetter. Test plants were then placed in a walk-in dew room at 22° C., 99 percent RH for 24 hours, after which time the plants were sub-irrigated with Hoagland's solution for 30 minutes and then moved into a misting greenhouse system where they were lightly misted every 90 seconds for three days. When the three-day misting period was completed, the plants were moved to the dry area of the greenhouse and bottom-watered daily until disease was fully expressed on the solvent control (10-14 days in summer, 14-21 days in winter). During the fall and winter months, the addition of a cart hood was used post-dew room, until assessment, in order to enhance disease uniformity and expression."}, "[5]": {"test_system": "Colletotricum lagenarium (COLLLA)", "experiment": "Cucumber Anthracnose one day protectant (1DP)", "conditions": "cucumber (Bush Champion), sprayed to runoff, rate 200 ppm", "protocol": "Compound formulation was accomplished by dissolving Compound I, II, III, IV, V, or VI in water with serial dilutions to obtain desired rates. Final treatment volumes were obtained by adding 0.1 percent aqueous Ethomeen T25 or 0.1 percent aqueous Spraymate X77+0.1 percent wt./vol. ammonium sulfate^+.\nCucumber Anthracnose (Colletotricum lagenarium; COLLLA) (1DP)\nCucumber plants (variety Bush Champion) were grown in plastic pots containing 100 percent Metro-Mix 360 (W.R Grace and Co.) until the first true leaf was 20-80 percent expanded. Each pot contained 1 seedling. These plants were then sprayed to runoff with the test compound at a rate of 200 ppm. After 24 hours, the plants were sprayed with an aqueous spore suspension of Colletotricum lagenarium (COLLLA). The plants were then transferred to a dew chamber for 24 hours, then to a growth chamber until disease developed on the untreated control plants."}, "[6]": {"test_system": "Puccinia recondita f. sp. tritici (PUCCRT)", "experiment": "Brown Rust of Wheat one day protectant (1DP)", "conditions": "wheat (Monon), sprayed to runoff, rate 200 ppm", "protocol": "Final treatment volumes were obtained by adding 0.1 percent aqueous Ethomeen T25 or 0.1 percent aqueous Spraymate X77+0.1 percent wt./vol. ammonium sulfate^+. Brown Rust of Wheat (Puccinia recondita f. sp. tritici-PUCCRT) (1 DP) Wheat (cultivar Monon) was grown in plastic pots (6.2 cm×8.75 cm) containing 50 percent mineral soil, 50 percent Metro-Mix 360 (W.R Grace and Co.) until the seedlings were 10-20 cm tall. These plants were then sprayed to runoff with the test compound at a rate of 200 ppm. After 24 hours the test plants were inoculated by spraying with an aqueous spore suspension of Puccinia recondita f. sp. tritici (PUCCRT). The plants were then transferred to a dew chamber for 24 hours, then to the greenhouse until disease developed on the untreated control plants."}}, "note": "Where two headings read alike, the source gives them in different places."}
{"smiles": "NC[C@@H]1NC(=O)C(C(=O)CC(NC(=O)[C@@H](N)CO)(C(=O)O)C(=O)O)=C1O", "note": "[Compound I, {[(2S)-2-amino-3-hydroxypropanoyl]amino}{2-[(5S)-5-(aminomethyl)-4-hydroxy-2-oxo-2,5-dihydro-1H-pyrrol-3-yl]-2-oxoethyl}malonic acid]", "values": [{"measurement": "LEPTNO percent control of plant disease", "setting": "[1]", "value": "+ (+ = 30-74 percent control of plant disease)"}, {"measurement": "PHYTIN 1DC percent disease control", "setting": "[2]; 7.8 g ai/ha", "value": "− (− = 0-29 percent control of plant disease)"}, {"measurement": "PHYTIN 1DC percent disease control", "setting": "[2]; 15.6 g ai/ha", "value": "+ (+ = 30-74 percent control of plant disease)"}, {"measurement": "PHYTIN 1DC percent disease control", "setting": "[2]; 31.2 g ai/ha", "value": "+ (+ = 30-74 percent control of plant disease)"}, {"measurement": "PHYTIN 1DC percent disease control", "setting": "[2]; 62.5 g ai/ha", "value": "− (− = 0-29 percent control of plant disease)"}, {"measurement": "PHYTIN 1DC percent disease control", "setting": "[2]; 125 g ai/ha", "value": "+ (+ = 30-74 percent control of plant disease)"}, {"measurement": "PHYTIN 1DC percent disease control", "setting": "[2]; 250 g ai/ha", "value": "++ (++ = 75-100 percent control)"}, {"measurement": "PUCCRT 1DC percent disease control", "setting": "[3]; 7.8 g ai/ha", "value": "− (− = 0-29 percent control of plant disease)"}, {"measurement": "PUCCRT 1DC percent disease control", "setting": "[3]; 15.6 g ai/ha", "value": "− (− = 0-29 percent control of plant disease)"}, {"measurement": "PUCCRT 1DC percent disease control", "setting": "[3]; 31.2 g ai/ha", "value": "+ (+ = 30-74 percent control of plant disease)"}, {"measurement": "PUCCRT 1DC percent disease control", "setting": "[3]; 62.5 g ai/ha", "value": "+ (+ = 30-74 percent control of plant disease)"}, {"measurement": "PUCCRT 1DC percent disease control", "setting": "[3]; 125 g ai/ha", "value": "++ (++ = 75-100 percent control)"}, {"measurement": "PUCCRT 1DC percent disease control", "setting": "[3]; 250 g ai/ha", "value": "++ (++ = 75-100 percent control)"}, {"measurement": "PUCCRT 3DC percent disease control", "setting": "[3]; 7.8 g ai/ha", "value": "− (− = 0-29 percent control of plant disease)"}, {"measurement": "PUCCRT 3DC percent disease control", "setting": "[3]; 15.6 g ai/ha", "value": "+ (+ = 30-74 percent control of plant disease)"}, {"measurement": "PUCCRT 3DC percent disease control", "setting": "[3]; 31.2 g ai/ha", "value": "++ (++ = 75-100 percent control)"}, {"measurement": "PUCCRT 3DC percent disease control", "setting": "[3]; 62.5 g ai/ha", "value": "++ (++ = 75-100 percent control)"}, {"measurement": "PUCCRT 3DC percent disease control", "setting": "[3]; 125 g ai/ha", "value": "++ (++ = 75-100 percent control)"}, {"measurement": "PUCCRT 3DC percent disease control", "setting": "[3]; 250 g ai/ha", "value": "++ (++ = 75-100 percent control)"}, {"measurement": "SEPTTR percent control of plant disease", "setting": "[4]", "value": "++ (++ = 75-100 percent control of plant disease)"}, {"measurement": "SEPTTR 3DC percent disease control", "setting": "Septoria tritici SEPTTR; 7.8 g ai/ha", "value": "++ (++ = 75-100 percent control)"}, {"measurement": "SEPTTR 3DC percent disease control", "setting": "Septoria tritici SEPTTR; 15.6 g ai/ha", "value": "++ (++ = 75-100 percent control)"}, {"measurement": "SEPTTR 3DC percent disease control", "setting": "Septoria tritici SEPTTR; 31.2 g ai/ha", "value": "++ (++ = 75-100 percent control)"}, {"measurement": "SEPTTR 3DC percent disease control", "setting": "Septoria tritici SEPTTR; 62.5 g ai/ha", "value": "++ (++ = 75-100 percent control)"}, {"measurement": "SEPTTR 3DC percent disease control", "setting": "Septoria tritici SEPTTR; 125 g ai/ha", "value": "++ (++ = 75-100 percent control)"}, {"measurement": "SEPTTR 3DC percent disease control", "setting": "Septoria tritici SEPTTR; 250 g ai/ha", "value": "++ (++ = 75-100 percent control)"}, {"measurement": "COLLLA percent control of plant disease", "setting": "[5]", "value": "− (− = 0-29 percent control of plant disease)"}, {"measurement": "PUCCRT percent control of plant disease", "setting": "[6]", "value": "++ (++ = 75-100 percent control of plant disease)"}]}
